According to PMC10856407, “Polymer Nanoparticles with 2-HP-β-Cyclodextrin for Enhanced Retention of Uptake into HCE-T Cells” (Molecules, 2024):

Experiments:
[1] = system: HCE-T cells; assay: Endocytic transport mechanism in nanoparticle uptake (endocytosis inhibitors, flow cytometry); assay type: cell-based, human; details: EIPA 100 μM, Chlorpromazine 30 μM, Nystain 30 μM, p < 0.01
Method: The main nanoparticle entry processes involve the clathrin structure, caveolin/lipid raft structure, and macropinocytosis. The experiment was conducted by separately adding different endocytosis transport inhibitors to examine the degree of action during nanoparticle uptake. The clathrin structural inhibitor Chlorpromazine (30 μM), the caveolin/lipid raft structure inhibitor Nystain (30 μM), and the macropinocytosis inhibitor derivative amiloride (EIPA, 100 μM) were added seperately. […] Serum-free cultures of varying endocytotic transport inhibitors were inspected using the method described above (Study of Active Transport Mechanism in Nanoparticle Uptake by HCE-T Cells).

[2] = system: HCE-T cells; details: sodium azide 1 mg·mL^−1, 1 h pre-incubation, 4 h uptake, NPs 20 μg·mL^−1, p < 0.01
Method: HCE-T cells were seeded at a density of 1 × 10^5 cells·well^−1 in a six-well plate, and the culture medium was discarded when the cell density reached 80%. […] Then, fluorescently labeled nanoparticles were added for a final concentration of 20 μg·mL^−1. After continuing the uptake experiment for 4 h, the fluorescently labeled nanoparticle solution was discarded, washed three times with PBS, and digested using trypsin. The cells were blown out with serum cultures, collected, and centrifuged at 1000 rpm. The supernatant was aspirated to remove the fluorescent material adsorbed on the cell surface. Finally, 0.3 mL of the cells suspended in PBS were transferred into flow tubes and assayed using flow cytometry (BD FACSCanto II, Becton, Dickinson and Company, New York, NY, USA). The fluorescence intensity was quantified by collecting 10,000 cells, and X-means were used for comparing the differences in cell uptake between the groups.

Row | Compound | inhibition of HCE-T cell uptake of (2-HP-β-CD)/PLGA NPs [1] | also measured
1 | CN(C)CCCN1c2ccccc2Sc2ccc(Cl)cc21 [Chlorpromazine] |  | inhibition at 30 µM ([1]; Homo sapiens, read-out: inhibition of HCE-T cell uptake of (2-HP-β-CD)/PLGA NPs): 46.4%
2 | CCN(c1nc(N)c(C(=O)N=C(N)N)nc1Cl)C(C)C [EIPA, 5-(N-ethyl-N-isopropyl) amiloride] | 53.3% | 
3 | [N-]=[N+]=[N-].[Na+] [sodium azide] |  | reduction of uptake of (2-HP-β-CD)/PLGA NPs [2]: 60.0%
4 | Nystain | 38.3% | 
